Reference: patent publication US8809001B2, “High throughput assays for inhibitors and activators of PAQR receptors” (University of Florida Research Foundation, Inc., priority 2007, dated 2014)

Legend:
[1] = tested on: AdipoR2; test: FET3-lacZ (pFET3-397) reporter repression in yeast expressing AdipoR2; format: cell-based, human; settings: concentrations as high as 10 μM
Description: IZH1-4 were cloned into pRS316-GAL1 via gap repair as previously described (Lyons et al., 2004). The triple hemaglutinin epitope (3×HA) tagged construct of the IZH2 gene was generated by replacing the ZRC1 promoter and open reading frame in the YCpZRC1-HA plasmid (MacDiarmid et al., 2002) with those of IZH2. This was accomplished by gap repair of Age I-digested YCpZRC1-HA to generate pIZH2-3×HA. This construct has the IZH2 gene driven by its native promoter and retains the ZRC1 terminator sequence. The native IZH2 promoter was then exchanged with the GAL1 promoter using gap repair of pIZH2-3×HA plasmids cut with EcoN I. AdipoR1 and AdipoR2 were amplified from cDNAs obtained from OpenBiosystems (Accession #: BC010743 and BC051858, respectively). PCR products were cloned into NcoI/BamHI digested pYES260 vector (Melcher, 2000) by gap repair allowing for GAL1-driven expression. Plasmids containing GAL1-driven the TAP (Tandem Affinity Purification) tagged NRG1 and NRG2 constructs were purchased from OpenBiosystems.
Most experiments were performed in a defined EDTA-containing medium known as low iron medium (LIM) (Eide et al., 1992). Iron-deficiency and repletion were generated by adding either 1 μM or 1 mM of FeCl3, respectively, to LIM. 2% galactose was used to fully induce GAL1-driven gene overexpression. Total sugar concentration was maintained at 2% by the addition of raffinose in those experiments in which the % galactose was modulated to decrease expression levels. Cells were allowed to grow to mid-log phase in LIM and β-galactosidase assays on permeabilized yeast were performed as previously described (Lyons et al., 2000). […]
(§1) Assays and growth conditions. […] Cells were allowed to grow to mid-log phase at which time the activity of the FET3 gene was monitored using a FET3-lacZ promoter-reporter construct. lacZ activities are presented as a percentage of activity seen in untreated cells expressing the appropriate empty expression vector control. […]

[2] = tested on: receptors in Classes I and III; test: FET3-lacZ response of the human PAQR panel to 10 μM progesterone: Classes I and III; format: cell-based
Description: Plasmids and primers. Human PAQRs were cloned into various vectors by PCR from commercially/publically available cDNAs. PAQRs were cloned into the pYES260 (Melcher, 2000), pRS316 (Liu et al., 1992) or pGREG536 (Jansen et al., 2005) expression vectors using gap repair. The pJK90 plasmid containing a Dual Topology Reporter (DTR)-tagged OST4 gene driven by the constitutive TPI1 promoter was kindly provided by Dr. Gunnar von Heijne (Stockholm University) (Kim et al., 2003). The OST4 open reading frame in pJK90 was replaced with the PAQR6 and mPRα open reading frames by gap repair. Primers for all cloning reactions are listed herein. Proteins expressed in pYES260 have an N-terminal 6×-histidine tag followed by a TEV protease cleavage site. Proteins expressed in pGREG536 have an N-terminal 7×-HA tag. Proteins expressed in the pRS316 vector are untagged. The pYES260, pRS316 and pGREG536 vectors allow for galactose-inducible expression via the GAL1 promoter. […] The FET3-lacZ plasmid was previously described (Kupchak et al., 2007). […]
as §1

Structure (SMILES): CC(=O)[C@H]1CC[C@H]2[C@@H]3CCC4=CC(=O)CC[C@]4(C)[C@H]3CC[C@]12C [Progesterone, progesterone]
- response of AdipoR2 to progesterone [1]: do not respond
- agonist effect on receptors in Classes I and III [2]: ineffective
